Measured values as given in PubChem BioAssay (NCI).
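Interpolation was linear, between the two tested concentrations surrounding the appropriate level; five concentrations were tested over 48 hours in 96-well plates. Definition used: TGI = concentration required for complete inhibition of growth.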

Experiments:
Assay in all cases: NCI tumour cell line growth inhibition, 48 h
KM12 colon = system: KM12 colon
LXFL 529 NSCLC = system: LXFL 529 NSCLC
RXF 393 renal = system: RXF 393 renal
DMS 273 small cell lung = system: DMS 273 small cell lung
TK-10 renal = system: TK-10 renal
HOP-18 NSCLC = system: HOP-18 NSCLC
ACHN renal = system: ACHN renal
SF-268 CNS = system: SF-268 CNS
HCT-15 colon = system: HCT-15 colon
IGROV1 ovarian = system: IGROV1 ovarian
SNB-78 CNS = system: SNB-78 CNS
A549 NSCLC = system: A549 NSCLC
SK-OV-3 ovarian = system: SK-OV-3 ovarian
SK-MEL-5 melanoma = system: SK-MEL-5 melanoma
COLO 205 colon = system: COLO 205 colon
DLD-1 colon = system: DLD-1 colon
K-562 leukemia = system: K-562 leukemia
M19-MEL melanoma = system: M19-MEL melanoma
NCI-H460 lung = system: NCI-H460 lung
SNB-75 CNS = system: SNB-75 CNS
NCI-H23 lung = system: NCI-H23 lung
HCC-2998 colon = system: HCC-2998 colon
SR leukemia = system: SR leukemia
UACC-62 melanoma = system: UACC-62 melanoma
SF-295 CNS = system: SF-295 CNS
DMS 114 small cell lung = system: DMS 114 small cell lung
MALME-3M melanoma = system: MALME-3M melanoma
M14 melanoma = system: M14 melanoma
RXF-631 renal = system: RXF-631 renal
A498 renal = system: A498 renal
SF-539 CNS = system: SF-539 CNS
HL-60(TB) leukemia = system: HL-60(TB) leukemia
HT29 colon = system: HT29 colon
XF 498 CNS = system: XF 498 CNS
LOX IMVI melanoma = system: LOX IMVI melanoma
UO-31 renal = system: UO-31 renal
786-0 renal = system: 786-0 renal
SW-620 colon = system: SW-620 colon
OVCAR-8 ovarian = system: OVCAR-8 ovarian
MOLT-4 leukemia = system: MOLT-4 leukemia
OVCAR-3 ovarian = system: OVCAR-3 ovarian
RPMI-8226 leukemia = system: RPMI-8226 leukemia
SN12C renal = system: SN12C renal
CCRF-CEM leukemia = system: CCRF-CEM leukemia
SK-MEL-28 melanoma = system: SK-MEL-28 melanoma
EKVX NSCLC = system: EKVX NSCLC
SNB-19 CNS = system: SNB-19 CNS
U251 CNS = system: U251 CNS
OVCAR-4 ovarian = system: OVCAR-4 ovarian

CN1CC(=O)N(C)c2ncn(Cc3ccccc3)c2C1=O
TGI (KM12 colon): > 100 µM | TGI (LXFL 529 NSCLC): > 100 µM | TGI (RXF 393 renal): > 100 µM | TGI (DMS 273 small cell lung): > 100 µM | TGI (TK-10 renal): > 100 µM | TGI (HOP-18 NSCLC): > 100 µM | TGI (ACHN renal): > 100 µM | TGI (SF-268 CNS): > 100 µM | TGI (HCT-15 colon): > 100 µM | TGI (IGROV1 ovarian): > 100 µM | TGI (SNB-78 CNS): > 100 µM | TGI (A549 NSCLC): > 100 µM | TGI (SK-OV-3 ovarian): > 100 µM | TGI (SK-MEL-5 melanoma): > 100 µM | TGI (COLO 205 colon): > 100 µM | TGI (DLD-1 colon): > 100 µM | TGI (K-562 leukemia): > 100 µM | TGI (M19-MEL melanoma): > 100 µM | TGI (NCI-H460 lung): > 100 µM | TGI (SNB-75 CNS): > 100 µM | TGI (NCI-H23 lung): > 100 µM | TGI (HCC-2998 colon): > 100 µM | TGI (SR leukemia): > 100 µM | TGI (UACC-62 melanoma): > 100 µM | TGI (SF-295 CNS): > 100 µM | TGI (DMS 114 small cell lung): > 100 µM | TGI (MALME-3M melanoma): > 100 µM | TGI (M14 melanoma): > 100 µM | TGI (RXF-631 renal): > 100 µM | TGI (A498 renal): > 100 µM | TGI (SF-539 CNS): > 100 µM | TGI (HL-60(TB) leukemia): > 100 µM | TGI (HT29 colon): > 100 µM | TGI (XF 498 CNS): 96.4 µM | TGI (LOX IMVI melanoma): > 100 µM | TGI (UO-31 renal): > 100 µM | TGI (786-0 renal): > 100 µM | TGI (SW-620 colon): > 100 µM | TGI (OVCAR-8 ovarian): > 100 µM | TGI (MOLT-4 leukemia): > 100 µM | TGI (OVCAR-3 ovarian): > 100 µM | TGI (RPMI-8226 leukemia): > 100 µM | TGI (SN12C renal): > 100 µM | TGI (CCRF-CEM leukemia): > 100 µM | TGI (SK-MEL-28 melanoma): > 100 µM | TGI (EKVX NSCLC): > 100 µM | TGI (SNB-19 CNS): > 100 µM | TGI (U251 CNS): > 100 µM | TGI (OVCAR-4 ovarian): > 100 µM
